pIC50: −log10 of the molar value. Counter-ions that a name gives are not always drawn.
Biological target: T1, p38 alpha (Homo sapiens, UniProt Q16539)
T1 construct: purchased Invitrogen PV3304
Assay: P38 alpha enzyme inhibition assay (Alphascreen kinase activity assay)
Assay type: biochemical
Settings: 100 pM p38 alpha, 2 hours preincubation at 25° C., 250 μM ATP, ATF-2 fusion protein; read-out: p38α inhibition
Procedure: P38 Alpha Enzyme Inhibition Assay
The inhibitory activity of compounds was determined using an Alphascreen® (Perkin Elmer) based kinase activity assay. Kinase reactions consisted of 25 mM HEPES pH 7.5, 10 mM MgCl2, 100 μM Na3VO4, 2 mM DTT, 0.05 mg/ml Tween 20, 100 pM p38 alpha (Invitrogen, PV3304), 1% DMSO and 0.3 μg/ml ATF-2 fusion protein (New England Biolabs, 9224). Compounds were incubated under these conditions for 2 hours, at 25° C., prior to the initiation of the kinase activity by the addition of the 250 μM ATP. Reaction volumes were 20 μL. After 1 hr at 25° C. reactions were stopped by the adding 10 μL of 25 mM HEPES pH 7.5 containing 62.5 mM EDTA, 0.05% Triton X-100, 10% BSA and 0.83 ng/uL anti-phospho-ATF2 antibody (Abcam, ab28812). Detection was performed by measuring luminescence following the addition of Alphascreen Donor beads (Perkin Elmer 6765300) and Protein A Alphascreen Acceptor beads (Perkin Elmer 6760137), both at a final concentration of 20 ug/ml. IC50 values were determined from concentration-response curves.

T1 sequence (Q16539 whole entry): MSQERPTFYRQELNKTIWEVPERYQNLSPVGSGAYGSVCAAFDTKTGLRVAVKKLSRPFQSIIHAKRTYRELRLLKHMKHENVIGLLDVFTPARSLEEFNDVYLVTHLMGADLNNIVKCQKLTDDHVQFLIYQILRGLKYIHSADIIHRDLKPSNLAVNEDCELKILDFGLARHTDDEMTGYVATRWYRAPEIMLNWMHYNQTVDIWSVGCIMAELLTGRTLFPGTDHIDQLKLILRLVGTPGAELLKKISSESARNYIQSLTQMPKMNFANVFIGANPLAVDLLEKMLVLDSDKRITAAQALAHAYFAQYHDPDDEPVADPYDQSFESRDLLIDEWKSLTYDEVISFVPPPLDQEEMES

Row | SMILES | pIC50
1 | CN(C)CCNC(=O)c1nc(NC(=O)N[C@H]2CC[C@@H](Oc3ccc4nnc(C(C)(C)N5CCN(C)CC5)n4c3)c3ccccc32)cc(C(C)(C)C)n1 [Example 22, 4-(tert-Butyl)-N-(2-(dimethylamino)ethyl)-6-(3-((1S,4R)-4-((3-(2-(4-methylpiperazin-1-yl)propan-2-yl)-[1,2,4]triazolo[4,3-a]pyridin-6-yl)oxy)-1,2,3,4-tetrahydronaphthalen-1-yl)ureido)pyrimidine-2-carboxamide] | 8.00 to 9.00
2 | CC(C)(C)c1cc(NC(=O)N[C@H]2CC[C@@H](Oc3ccc4nnc(C(C)(C)C)n4c3)c3ccccc32)nc(COCCN2CCOCC2)n1 [Example 63, 1-(6-(tert-Butyl)-2-((2-morpholinoethoxy)methyl)pyrimidin-4-yl)-3-((1S,4R)-4-((3-(tert-butyl)-[1,2,4]triazolo[4,3-a]pyridin-6-yl)oxy)-1,2,3,4-tetrahydronaphthalen-1-yl)urea] | 8.00 to 9.00
3 | CN(C)CCNC(=O)c1nc(NC(=O)N[C@H]2CC[C@@H](Oc3ccc4nnc(C(=O)N5CCOCC5)n4c3)c3ccccc32)cc(C(C)(C)C)n1 [Example 71, 4-(tert-butyl)-N-(2-(dimethylamino)ethyl)-6-(3-((1S,4R)-4-((3-(morpholine-4-carbonyl)-[1,2,4]triazolo[4,3-a]pyridin-6-yl)oxy)-1,2,3,4-tetrahydronaphthalen-1-yl)ureido)pyrimidine-2-carboxamide] | 8.00 to 9.00
4 | CO[C@@H](C)c1nnc2ccc(O[C@@H]3CC[C@H](NC(=O)Nc4cc(C(C)(C)C)nc(C(=O)NCCN5CCOCC5)n4)c4ccccc43)cn12 [Example 101, 4-(tert-butyl)-6-(3-((1S,4R)-4-((3-((S)-1-methoxyethyl)-[1,2,4]triazolo[4,3-a]pyridin-6-yl)oxy)-1,2,3,4-tetrahydronaphthalen-1-yl)ureido)-N-(2-morpholinoethyl)-pyrimidine-2-carboxamide] | 8.00 to 9.00
5 | COCCN(C)CCNC(=O)c1nc(NC(=O)N[C@H]2CC[C@@H](Oc3ccc4nnc([C@H](C)OC)n4c3)c3ccccc32)cc(C(C)(C)C)n1 [Example 106, 4-(tert-butyl)-N-(2-((2-methoxyethyl)(methyl)amino)ethyl)-6-(3-((1S,4R)-4-((3-((S)-1-methoxyethyl)-[1,2,4]triazolo[4,3-a]pyridin-6-yl)oxy)-1,2,3,4-tetrahydronaphthalen-1-yl)ureido)pyrimidine-2-carboxamide] | 8.00 to 9.00
6 | CN(C)CCN(C)C(=O)c1nc(NC(=O)N[C@H]2CC[C@@H](Oc3ccc4nnc(C(C)(C)C)n4c3)c3ccccc32)cc(C(C)(C)C)n1 [Example 115, 4-(tert-butyl)-6-(3-((1S,4R)-4-((3-(tert-butyl)-[1,2,4]triazolo[4,3-a]pyridin-6-yl)oxy)-1,2,3,4-tetrahydronaphthalen-1-yl)ureido)-N-(2-(dimethylamino)ethyl)-N-methylpyrimidine-2-carboxamide] | 8.00 to 9.00
7 | CC(C)(C)c1cc(NC(=O)N[C@H]2CC[C@@H](Oc3ccc4nnc(C(C)(C)C)n4c3)c3ccccc32)nc(C(=O)N2CCN(CCO)CC2)n1 [Example 116, 1-(6-(tert-butyl)-2-(4-(2-hydroxyethyl)piperazine-1-carbonyl)pyrimidin-4-yl)-3-((1S,4R)-4-((3-(tert-butyl)-[1,2,4]triazolo[4,3-a]pyridin-6-yl)oxy)-1,2,3,4-tetrahydronaphthalen-1-yl)urea] | 8.00 to 9.00

Further lines, results first:

Row | pIC50 | SMILES
8 | 8.00 to 9.00 | CC(C)c1nnc2ccc(O[C@@H]3CC[C@H](NC(=O)Nc4cc(C(C)(C)C)nc(C(=O)NCCN(C)C)n4)c4ccccc43)cn12 [Example 17, 4-(tert-Butyl)-N-(2-(dimethylamino)ethyl)-6-(3-((1S,4R)-4-((3-isopropyl-[1,2,4]triazolo[4,3-a]pyridin-6-yl)oxy)-1,2,3,4-tetrahydronaphthalen-1-yl)ureido)pyrimidine-2-carboxamide]
9 | 8.00 to 9.00 | CCc1nc(NC(=O)N[C@H]2CC[C@@H](Oc3ccc4nnc([C@]5(C)CCCN5C)n4c3)c3ccccc32)cc(C(C)(C)C)n1 [Example 41, 1-(6-(tert-Butyl)-2-ethylpyrimidin-4-yl)-3-((1S,4R)-4-((3-((S)-1,2-dimethylpyrrolidin-2-yl)-[1,2,4]triazolo[4,3-a]pyridin-6-yl)oxy)-1,2,3,4-tetrahydronaphthalen-1-yl)urea]
10 | 8.00 to 9.00 | CC(C)c1nc(NC(=O)N[C@H]2CC[C@@H](Oc3ccc4nnc([C@]5(C)CCCN5C)n4c3)c3ccccc32)cc(C(C)(C)C)n1 [Example 42, 1-(6-(tert-Butyl)-2-isopropylpyrimidin-4-yl)-3-((1S,4R)-4-((3-((S)-1,2-dimethylpyrrolidin-2-yl)-[1,2,4]triazolo[4,3-a]pyridin-6-yl)oxy)-1,2,3,4-tetrahydronaphthalen-1-yl)urea]
11 | 8.00 to 9.00 | CSc1nc(NC(=O)N[C@H]2CC[C@@H](Oc3ccc4nnc([C@@H]5CCCN5C)n4c3)c3ccccc32)cc(C(C)(C)C)n1 [Example 48]
12 | 8.00 to 9.00 | CC(C)(C)c1cc(NC(=O)N[C@H]2CC[C@@H](Oc3ccc4nnc(C(C)(C)C)n4c3)c3ccccc32)nc(C(=O)N2CC(F)(F)C2)n1 [Example 79, 1-(6-(tert-butyl)-2-(3,3-difluoroazetidine-1-carbonyl)pyrimidin-4-yl)-3-((1S,4R)-4-((3-(tert-butyl)-[1,2,4]triazolo[4,3-a]pyridin-6-yl)oxy)-1,2,3,4-tetrahydronaphthalen-1-yl)urea]
13 | 8.00 to 9.00 | CC(C)Cc1nnc2ccc(O[C@@H]3CC[C@H](NC(=O)Nc4cc(C(C)(C)C)nc(C(=O)NCCN5CCOCC5)n4)c4ccccc43)cn12 [Example 90, 4-(tert-butyl)-6-(3-((1S,4R)-4-((3-isobutyl-[1,2,4]triazolo[4,3-a]pyridin-6-yl)oxy)-1,2,3,4-tetrahydronaphthalen-1-yl)ureido)-N-(2-morpholinoethyl)-pyrimidine-2-carboxamide]
14 | 8.00 to 9.00 | CC(C)(C)c1cc(NC(=O)N[C@H]2CC[C@@H](Oc3ccc4nnc(C5(C)COC5)n4c3)c3ccccc32)nc(C(=O)NCCN2CCOCC2)n1 [Example 98, 4-(tert-butyl)-6-(3-((1S,4R)-4-((3-(3-methyloxetan-3-yl)-[1,2,4]triazolo[4,3-a]pyridin-6-yl)oxy)-1,2,3,4-tetrahydronaphthalen-1-yl)ureido)-N-(2-morpholinoethyl)-pyrimidine-2-carboxamide]
15 | 8.00 to 9.00 | CN1CCCN(C(=O)c2nc(NC(=O)N[C@H]3CC[C@@H](Oc4ccc5nnc(C(C)(C)C)n5c4)c4ccccc43)cc(C(C)(C)C)n2)CC1 [Example 133, 1-(6-(tert-butyl)-2-(4-methyl-1,4-diazepane-1-carbonyl)pyrimidin-4-yl)-3-((1S,4R)-4-((3-(tert-butyl)-[1,2,4]triazolo[4,3-a]pyridin-6-yl)oxy)-1,2,3,4-tetrahydronaphthalen-1-yl)urea]
16 | 8.00 to 9.00 | CN1CCN(Cc2nc(NC(=O)N[C@H]3CC[C@@H](Oc4ccc5nnc(C(C)(C)C)n5c4)c4ccccc43)cc(C(C)(C)C)n2)C(=O)C1 [Example 135, 1-(6-(tert-Butyl)-2-((4-methyl-2-oxopiperazin-1-yl)methyl)pyrimidin-4-yl)-3-((1S,4R)-4-((3-(tert-butyl)-[1,2,4]triazolo[4,3-a]pyridin-6-yl)oxy)-1,2,3,4-tetrahydronaphthalen-1-yl)urea formate salt]
